# Measured values published in PMC9785542, “Discovery of 1-Benzhydryl-Piperazine-Based HDAC Inhibitors with Anti-Breast Cancer Activity: Synthesis, Molecular Modeling, In Vitro and In Vivo Biological Evaluation” (Pharmaceutics, 2022).
# Like-named read-outs stand apart in the source and are kept apart here.
# Experiments:
# [1] = target: T1, Human recombinant C-ter-His-FLAG-HDAC1 (Homo sapiens, UniProt Q13547); set-up: method as in PMID 21832257; conditions: profiles of reference HDACi; read-out: HDAC Inhibition, IC50, HDAC1; cited from earlier work
# T1 construct: His (C); FLAG (C); purchased BPS Bioscience 50051
# T1 sequence (Q13547 whole entry): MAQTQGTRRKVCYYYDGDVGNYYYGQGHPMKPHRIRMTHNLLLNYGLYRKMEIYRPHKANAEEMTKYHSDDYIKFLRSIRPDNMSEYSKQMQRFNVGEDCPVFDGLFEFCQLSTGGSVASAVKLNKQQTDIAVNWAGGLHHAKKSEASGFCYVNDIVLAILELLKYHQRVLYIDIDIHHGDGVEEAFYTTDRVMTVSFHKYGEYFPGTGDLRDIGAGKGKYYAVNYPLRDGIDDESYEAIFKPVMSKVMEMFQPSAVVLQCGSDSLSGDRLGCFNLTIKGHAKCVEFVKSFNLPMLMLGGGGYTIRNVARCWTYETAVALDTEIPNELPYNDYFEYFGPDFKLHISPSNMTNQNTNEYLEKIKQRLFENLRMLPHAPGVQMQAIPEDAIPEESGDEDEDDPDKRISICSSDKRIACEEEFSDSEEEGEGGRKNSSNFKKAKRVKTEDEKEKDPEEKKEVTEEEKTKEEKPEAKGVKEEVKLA
# [2] = target: T2, Human recombinant N-ter-GST-HDAC-6 (Homo sapiens, UniProt Q9UBN7); conditions: read-out: HDAC Inhibition, IC50, HDAC6; profiles of reference HDACi; cited from earlier work
# T2 sequence (Q9UBN7 1-1215): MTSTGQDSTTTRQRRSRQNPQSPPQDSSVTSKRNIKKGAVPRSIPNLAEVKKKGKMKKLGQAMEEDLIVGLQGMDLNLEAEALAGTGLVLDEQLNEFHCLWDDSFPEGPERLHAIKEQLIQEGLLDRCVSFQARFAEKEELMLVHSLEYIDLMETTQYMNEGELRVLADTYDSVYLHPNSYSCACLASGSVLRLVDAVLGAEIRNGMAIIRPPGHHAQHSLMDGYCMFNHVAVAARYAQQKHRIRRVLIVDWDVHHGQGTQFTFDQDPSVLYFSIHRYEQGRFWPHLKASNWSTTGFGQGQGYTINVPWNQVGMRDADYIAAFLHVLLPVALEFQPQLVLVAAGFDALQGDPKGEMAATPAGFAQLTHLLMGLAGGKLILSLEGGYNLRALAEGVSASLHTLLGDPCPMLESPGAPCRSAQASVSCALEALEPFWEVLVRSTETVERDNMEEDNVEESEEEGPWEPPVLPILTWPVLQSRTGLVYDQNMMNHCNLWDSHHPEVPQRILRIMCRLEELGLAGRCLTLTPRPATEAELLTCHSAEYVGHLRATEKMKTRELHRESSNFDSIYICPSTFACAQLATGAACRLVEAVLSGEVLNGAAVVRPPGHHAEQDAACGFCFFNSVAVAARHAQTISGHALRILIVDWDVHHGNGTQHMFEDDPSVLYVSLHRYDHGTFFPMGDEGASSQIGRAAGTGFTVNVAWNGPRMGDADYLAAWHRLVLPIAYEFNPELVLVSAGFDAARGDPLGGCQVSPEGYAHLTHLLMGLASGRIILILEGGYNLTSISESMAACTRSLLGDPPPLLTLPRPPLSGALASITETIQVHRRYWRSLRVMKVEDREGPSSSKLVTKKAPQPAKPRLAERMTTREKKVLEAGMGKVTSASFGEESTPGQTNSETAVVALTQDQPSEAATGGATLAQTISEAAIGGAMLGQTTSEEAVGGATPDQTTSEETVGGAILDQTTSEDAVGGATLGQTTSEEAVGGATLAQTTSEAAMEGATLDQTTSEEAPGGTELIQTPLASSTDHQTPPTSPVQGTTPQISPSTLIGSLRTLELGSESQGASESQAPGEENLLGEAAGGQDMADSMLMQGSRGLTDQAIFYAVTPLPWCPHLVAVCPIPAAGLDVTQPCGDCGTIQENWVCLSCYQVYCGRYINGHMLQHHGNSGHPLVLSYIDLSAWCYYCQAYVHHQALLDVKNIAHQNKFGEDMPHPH
# [3] = test system: MDA-MB-231 cells; test: Cell cycle analysis, propidium iodide flow cytometry; assay type: cell-based, human; conditions: 72 h
# Method: MDA-MB-231 cells were treated with tested compounds for specified time courses. After treatment, examined cells were washed in cold PBS and incubated for 30 min in 96% ethanol on ice, centrifuged, and incubated with 80 μL RNase A ([…]) and 50 μL propidium iodide (50 μg/mL) for 30 min at 37 °C. The cell cycle was analyzed by FACS Calibur E440 (Becton Dickinson) flow cytometer and Cell Quest software. Results are presented as a percentage of cell cycle phases.
# [4] = test system: HDAC6; conditions: Figure 2; cited from earlier work
# [5] = test system: MDA-MB-231 cells; test: Cell viability (MTT) assay, MDA-MB-231; assay type: cell-based, human; conditions: Homo sapiens, MDA-MB-231, 48 h, read-out: Cytotoxic activity IC50 ± SD, MDA-MB-231
# Method: (§1) Human breast adenocarcinoma cells (MCF-7, ATCC® HTB-22™) and triple-negative breast cancer cells (MDA-MB-231, ATCC® HTB-26™) were obtained from the American Type Culture Collection (Rockville, MD, USA). Cells were maintained as a monolayer culture in DMEM:Ham’s 12 (1:1) medium (Sigma-Aldrich, St. Louis, MO, USA) supplemented with penicillin (192 U/mL), streptomycin (200 µg/mL), and 10% of heat-inactivated fetal calf serum (FCS). Cells were grown at 37 °C in 5% CO2 and humidified air atmosphere, by twice weekly subculture.
# (§2) Cytotoxic activity of synthesized 1-benzhydryl-piperazine-based HDAC inhibitors was assessed on MDA-MB-231 and MCF-7 cells using an MTT assay. MDA-MB-231 (5 × 10^3 cells/well) and MCF-7 (5 × 10^3 cells/well) were treated with synthesized compounds in six different concentrations (100, 50, 25, 12.5, 6.25, and 3.13 μM), and each concentration was added in five replicates. MTT solution (3-(4,5-dimethylthiazol-2-yl)-2,5-diphenyltetrazolium bromide) (Sigma-Aldrich, St. Louis, USA) was added to each well (20 µL) after 48 h. After 4 h of incubation, 100 μL of 10% SDS was added in each well and incubated at 37 °C. On the next day, the absorbance at 570 nm was recorded. The ratio of absorbance (570 nm) values between treated and control cells multiplied by 100 was used to calculate cell survival (%). The concentration of synthesized HDAC inhibitors that reduced cell viability by 50% was defined as the IC50 value, and was compared to the vehicle control.
# [6] = test system: MCF-7 cells; test: Cell viability (MTT) assay, MCF-7; assay type: cell-based; conditions: Homo sapiens, MCF7, 48 h, read-out: Cytotoxic activity IC50 ± SD, MCF-7
# Method: as §1, §2
# [7] = test system: MDA-MB-231 tumor spheres; test: 3D tumor sphere model, MTT and imaging; assay type: cell-based, human; conditions: for tumor sphere viability: 50 µM, 72 h, formed spheres, MTT
# Method: MDA-MB-231 cells were seeded at a cell density of 1000 c/w in 100 μL of DMEM containing 10% FCS in a low-attachment NunclonSphera 96-well ultra-low attachment plate (Thermo Scientific Nunc™, Rochester, NY, USA), to form multicellular tumor spheres, for 4 days. The formation and growth of tumor spheres were examined and imaged with an Olympus CKX53 microscope, using a 10× objective. MDA-MB-231 tumor spheres were treated by carefully adding 50 μL of the medium with fresh nutrient medium for control spheres or with compound-supplemented medium (50 μM) for treated spheres for another 72 h. The cytotoxicity of compounds toward the MDA-MB-231 tumor spheres was investigated by MTT assay.
# The formation and growth of tumor spheroids were examined and imaged with an Olympus CKX53 microscope, using 4x objective. The cytotoxicity of compounds toward the MDA-MB-231 tumor spheroids was investigated by MTT assay.
# [8] = test system: intersegmental blood vessels (ISVs) of Tg(fli1:EGFP) zebrafish embryos; test: Anti-angiogenic activity in Tg(fli1:EGFP) zebrafish embryos; assay type: in vivo; conditions: 8b 6.25-50 µM; Suten effective dose 1.56 µM
# Method: The inhibitory activity of 8b on angiogenesis was examined using embryos of the transgenic zebrafish Tg(fli1:EGFP) line with GFP-labeled endothelial cells, as previously described. Briefly, embryos at the 6–8 hpf stage were exposed to three non-toxic concentrations and incubated at 28 °C by 48 hpf. At 48 hpf, the treated embryos were anesthetized with 0.02% tricaine, imaged under a fluorescence microscope (Olympus BX51, Applied Imaging Corp., San Jose, CA, USA), and analyzed for the development of intersegmental blood vessels (ISVs). The experiment was performed three times using ten embryos per concentration. ISV lengths were measured using ImageJ program, and expressed as mean value with standard deviation. Inhibitory effect of the applied treatment was determined in relation to the control (DMSO-treated) group, arbitrarily set to 100%.
# [9] = target: T2, Human recombinant N-ter-GST-HDAC-6; test: HDAC-Glo I/II bioluminogenic enzyme assay, HDAC6; assay type: biochemical; set-up: GST (N); purchased BPS Bioscience 50006
# [10] = target: T3, Human recombinant HDAC-3/NcoR2 (Homo sapiens, UniProt O15379); test: HDAC-Glo I/II bioluminogenic enzyme assay, HDAC3; assay type: biochemical; set-up: purchased BPS Bioscience 50003; conditions: mean ± SD of three independent experiments; read-out: HDAC Inhibition, IC50 ± SD, HDAC3
# T3 sequence (O15379 whole entry): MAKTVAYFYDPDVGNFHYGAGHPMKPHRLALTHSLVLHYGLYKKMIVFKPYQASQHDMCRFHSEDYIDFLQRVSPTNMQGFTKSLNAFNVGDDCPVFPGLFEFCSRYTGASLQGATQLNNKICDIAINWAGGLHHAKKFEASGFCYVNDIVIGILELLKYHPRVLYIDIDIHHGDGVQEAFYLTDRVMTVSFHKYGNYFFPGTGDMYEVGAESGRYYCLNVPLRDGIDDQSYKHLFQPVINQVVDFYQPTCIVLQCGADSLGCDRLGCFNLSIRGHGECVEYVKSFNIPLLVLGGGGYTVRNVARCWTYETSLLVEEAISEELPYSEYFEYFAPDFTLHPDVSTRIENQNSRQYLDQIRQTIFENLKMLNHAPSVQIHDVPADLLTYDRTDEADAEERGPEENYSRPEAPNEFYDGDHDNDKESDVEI
# T3 sequence (Q9Y618 395-489 partner limits assumed): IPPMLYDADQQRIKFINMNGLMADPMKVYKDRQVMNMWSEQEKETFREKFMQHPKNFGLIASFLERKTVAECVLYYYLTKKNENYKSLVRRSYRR
# [11] = target: T1, Human recombinant C-ter-His-FLAG-HDAC1; test: HDAC-Glo I/II bioluminogenic enzyme assay, HDAC1; assay type: biochemical; conditions: mean ± SD of three independent experiments; read-out: HDAC Inhibition, IC50 ± SD, HDAC1
# [12] = test system: MDA-MB-231 cells; test: Apoptosis assay, Annexin V-FITC/7-AAD flow cytometry; assay type: cell-based, human; conditions: IC50 concentration
# Method: Examined breast cancer cells (MDA-MB-231) were stained with annexin V–fluorescein isothiocyanate/and 7AAD (BD Pharmingen, San Diego, CA, USA), and the samples were prepared following the specifications given by manufacturer. The population of apoptotic cells was analyzed by flow cytometry using a FACS Calibur cytometer and Cell Quest computer software (Becton Dickinson, Heidelberg, Germany).
# [13] = target: T4, Human recombinant C-terminal His-tag-HDAC8 (Homo sapiens, UniProt Q9BY41); test: HDAC-Glo I/II bioluminogenic enzyme assay, HDAC8; assay type: biochemical; conditions: mean ± SD of three independent experiments; read-out: HDAC Inhibition, IC50 ± SD, HDAC8
# T4 construct: His (C); purchased BPS Bioscience 50008
# T4 sequence (Q9BY41 1-377): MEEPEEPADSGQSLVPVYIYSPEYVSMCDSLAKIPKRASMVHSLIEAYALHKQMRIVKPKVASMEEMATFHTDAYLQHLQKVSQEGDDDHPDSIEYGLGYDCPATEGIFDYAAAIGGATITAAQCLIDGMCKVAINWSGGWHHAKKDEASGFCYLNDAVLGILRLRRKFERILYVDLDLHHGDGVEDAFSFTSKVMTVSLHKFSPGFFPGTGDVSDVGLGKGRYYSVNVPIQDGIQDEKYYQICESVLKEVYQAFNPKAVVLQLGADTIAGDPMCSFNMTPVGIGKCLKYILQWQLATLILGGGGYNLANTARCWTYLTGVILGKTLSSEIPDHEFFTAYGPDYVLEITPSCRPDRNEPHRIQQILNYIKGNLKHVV
# [14] = target: T4, Human recombinant C-terminal His-tag-HDAC8; set-up: method as in PMID 21832257; conditions: profiles of reference HDACi; read-out: HDAC Inhibition, IC50, HDAC8; cited from earlier work
# [15] = target: T3, Human recombinant HDAC-3/NcoR2; conditions: read-out: HDAC Inhibition, IC50, HDAC3; cited from earlier work
# [16] = 5 μM, mean ± standard error of triplicate
smiles,measurement,setting,value
CCCC(CCC)C(=O)O [Valproic acid],IC50,[1],660 µM
same,IC50,[2],> 1000 µM
"CN1CCc2c(c3ccccc3n2Cc2ccc(C(=O)NO)cc2)C1 [tubastatin A, reference compound]",sub-G1 phase cells,[3],around 30%
same,IC50,[5],20.8 ± 2.84 µM
same,IC50,[6],93.3 ± 9.4 µM
same,tumor sphere viability,[7],mild decrease
same,sphere formation and spheres viability,"[7]; co-culture 50 μM, 4 d in sphere culture conditions",significantly inhibited
"CCN(CC)CCNC(=O)c1c(C)[nH]c(/C=C2\C(=O)Nc3ccc(F)cc32)c1C [sunitinib-malate, reference compound]",toxic response in embryos at anti-angiogenic effective doses,[8],life-threatening pericardial edema
"O=C(CCN1CCN(C(c2ccccc2)c2ccccc2)CC1)NO [Compound 3b, 3-(4-(diphenylmethyl)-piperazin-1-yl)-N-hydroxypropionamide]",inhibition at 5 µM,[9]; [16],< 25%
"O=C(CCCCCN1CCN(C(c2ccccc2)c2ccccc2)CC1)NO [Compound 6b, 6-(4-(diphenylmethyl)-piperazin-1-yl)-N-hydroxyhexanamide]",IC50,[10],1.86 ± 0.09 µM
same,% HDAC6 Inhibition at 5 μM,[9]; [16],95.6 ± 0.9%
same,inhibition at 5 µM,[9]; [16],> 90%
same,IC50,"[9]; mean ± SD of three independent experiments, read-out: HDAC Inhibition, IC50 ± SD, HDAC6",0.186 ± 0.005 µM
same,Selectivity Ratio HDAC1/6,[9]; ratio of IC50 values,25.4
same,Selectivity Ratio HDAC3/6,[9]; ratio of IC50 values,10
same,Selectivity Ratio HDAC8/6,[9]; ratio of IC50 values,13.1
same,IC50,[11],4.73 ± 0.67 µM
same,IC50,[5],33.4 ± 2.79 µM
same,programmed cell death,[12]; 24 h,slight increase
same,early apoptotic cells,[12]; 48 h,approximately 20%
same,early apoptotic cells,[12]; 72 h,approximately 20%
same,IC50,[13],2.44 ± 0.51 µM
same,IC50,[6],84 ± 5.2 µM
same,tumor sphere viability,[7],mild decrease
same,sphere formation,"[7]; co-culture 4 d, at higher concentrations",inhibit sphere formation to some extent
"O=C(CCCCN1CCN(C(c2ccccc2)c2ccccc2)CC1)NO [Compound 5b, 5-(4-(diphenylmethyl)-piperazin-1-yl)-N-hydroxypentanamide]",inhibition at 5 µM,[9]; [16],< 25%
O=C(NO)c1cnc(NC2(c3ccccc3)CCC(F)(F)CC2)nc1 [ACY-1083],IC50,[4],0.003 µM
CCCC(=O)[O-].[Na+] [Sodium butyrate],IC50,[1],8.3 µM
same,IC50,[14],10.4 µM
same,IC50,[2],> 1000 µM
same,IC50,[15],4.8 µM
